Assay results from publication PMC7054748, “The identification and characterisation of autophagy inhibitors from the published kinase inhibitor sets” (Biochemical Journal, 2020).
Several values for one entry are separate records, joined by “and”; a condition that tells them apart may be missing. Equal values may be shown once.

Columns and labels:
ULK1 = target: T1, ULK1 (Homo sapiens, UniProt O75385); assay: ULK1 ADP Hunter Plus kinase activity assay; format: biochemical; details: resynthesized samples; mean potency in parenthesis, n = 5; read-out: IC50 against ULK1 (converted)
T1 construct: purchased MRC PPU Reagents and Services, Dundee, Scotland
T1 sequence (O75385 1-1050): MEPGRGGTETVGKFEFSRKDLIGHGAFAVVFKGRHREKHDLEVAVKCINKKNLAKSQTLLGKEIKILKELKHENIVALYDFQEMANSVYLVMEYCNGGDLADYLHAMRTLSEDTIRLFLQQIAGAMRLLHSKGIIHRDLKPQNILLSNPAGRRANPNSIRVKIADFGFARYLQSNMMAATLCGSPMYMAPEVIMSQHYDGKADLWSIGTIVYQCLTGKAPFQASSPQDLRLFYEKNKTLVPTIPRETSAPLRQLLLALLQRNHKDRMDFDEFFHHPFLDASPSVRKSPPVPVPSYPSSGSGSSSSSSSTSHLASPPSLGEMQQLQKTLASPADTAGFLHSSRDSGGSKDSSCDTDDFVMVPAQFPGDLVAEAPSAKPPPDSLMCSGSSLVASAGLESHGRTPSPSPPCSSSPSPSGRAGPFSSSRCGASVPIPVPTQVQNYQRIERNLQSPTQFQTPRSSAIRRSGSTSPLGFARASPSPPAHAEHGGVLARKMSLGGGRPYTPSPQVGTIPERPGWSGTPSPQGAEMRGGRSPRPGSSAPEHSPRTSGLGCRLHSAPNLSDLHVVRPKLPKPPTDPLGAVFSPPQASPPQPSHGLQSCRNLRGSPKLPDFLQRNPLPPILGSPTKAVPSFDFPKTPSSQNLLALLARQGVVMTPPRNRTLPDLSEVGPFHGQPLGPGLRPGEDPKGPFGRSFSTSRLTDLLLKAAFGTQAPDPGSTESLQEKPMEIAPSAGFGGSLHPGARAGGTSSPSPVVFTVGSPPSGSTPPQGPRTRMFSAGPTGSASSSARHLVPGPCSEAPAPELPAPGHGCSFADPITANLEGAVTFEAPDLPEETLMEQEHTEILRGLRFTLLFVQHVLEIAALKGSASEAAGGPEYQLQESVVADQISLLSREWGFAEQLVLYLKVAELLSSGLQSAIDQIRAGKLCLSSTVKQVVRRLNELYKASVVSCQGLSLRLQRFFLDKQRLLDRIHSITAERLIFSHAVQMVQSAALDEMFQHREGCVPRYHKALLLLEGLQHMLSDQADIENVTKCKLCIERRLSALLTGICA

LC3 flux in U2OS cells = assay: Autophagic flux: LC3-II western blot with/without BafA1 in U2OS cells; format: cell-based, human; details: U2OS
Description: (§1) U2OS (human osteosarcoma-derived) cells were cultured in DMEM supplemented with 10% foetal bovine serum, 100 U/ml Penicillin and […] L-glutamine. Cells were pre-treated with compounds at the indicated concentrations for 60 min followed by treatments with EBSS or EBSS combined with/without 50 nM Bafilomycin A1 (Enzo Life Sciences) for a further 60 or 120 min with/without inhibitors, as indicated in figures/figure legends.
(§2) Prior to western blot analysis, cells were washed twice in ice-cold PBS and lysed in buffer containing 50 mM HEPES pH 7.4, 150 mM NaCl, 1 mM EDTA, 10% Glycerol, 0.5% NP-40, 1 mM DTT, supplemented with phosphatase inhibitors (1.15 mM sodium molybdate, 4 mM sodium tartrate, 0.01 M β-glycerophosphate, 1 mM sodium fluoride, 1 mM sodium orthovanadate) and protease inhibitor tablets (Roche) according to manufacturer's instructions. Lysates were then spun at 20 000×g for 10 min and the supernatant was collected for protein content estimation using Protein Assay Dye Reagent Concentrate from Bio-Rad. 4× LDS was added to the lysate (final dilution 1×) prior to heating at 95°C for 5 min. Electrophoresis and transfer to PVDF membranes was performed using standard protocols. Membranes were blocked in 5% milk in TBS-T prior to incubation with primary antibodies (in 5% milk/TBS-T for ULK1, pS555 (human S556) ULK1, pS757 (human S758) ULK1, pS318-ATG13, ATG13, and in 5% BSA/TBS-T for LC3 and α-Tubulin) under rotation overnight at 4°C followed by washes in TBS-T and incubation with HRP-conjugated secondary antibodies (in 5% milk in TBS-T) for 60 min at room temperature. Membranes were washed in TBS-T before application of ECL reagent (GE healthcare) and development on hypersensitive X-ray films (GE healthcare) (Figures 5A, 6C and Supplementary Figure S7C) or using BIO-RAD Clarity^TM western blotting substrate (Supplementary Figure S6C and Supplementary Figure S7A) and a BIO-RAD ChemiDoc^TM imaging system.
(§3) Quantification of western blots was performed with band densitometry analysis using ImageJ. Quantification of LC3 puncta was performed using either the ITCN plugging in ImageJ or Volocity. One-way or two-way Anova (using GraphPad Prism) followed by a post-hoc test, was used for statistical analysis of western blots and immunofluorescence as indicated in figure legends.

VPS34 (WIPI2 puncta) = assay: Cellular VPS34 activity: WIPI2 puncta immunofluorescence in U2OS cells; format: cell-based, human
Description: as §1
Prior to immunofluorescence, cells were grown on glass coverslips to ∼60% confluency. Cells were washed in PBS prior to fixation with 3.7% PFA/10 mM HEPES pH 7.0 at room temperature for 20 min. PFA was quenched using DMEM/10 mM HEPES pH 7.0/0.02% NaN3, followed by permeabilisation with 0.2% NP-40 in PBS for 5 min, followed by blocking with 1% BSA/PBS/0.02% NaN3. Primary antibody incubation was at room temperature for 60 min, followed by two 10-minute washes, then fluorescent secondary antibody incubation for 30 min and further washes (all in blocking buffer) before mounting onto glass slides. A wide field Nikon TS microscope was used for image capturing.
as §3

mTOR (ULK1 pS758) = assay: Upstream mTOR activity: ULK1 pS758 western blot in U2OS cells; format: cell-based, human; details: 100 nM (VPS34-IN1 500 nM), 60 min pre-treatment, ± EBSS 60 min
Description: as §1
as §2, with “Lysates” for “Prior to western blot analysis, cells were washed twice in ice-cold PBS and lysed in buffer containing 50 mM HEPES pH 7.4, 150 mM NaCl, 1 mM EDTA, 10% Glycerol, 0.5% NP-40, 1 mM DTT, supplemented with phosphatase inhibitors (1.15 mM sodium molybdate, 4 mM sodium tartrate, 0.01 M β-glycerophosphate, 1 mM sodium fluoride, 1 mM sodium orthovanadate) and protease inhibitor tablets (Roche) according to manufacturer's instructions. Lysates”
as §3

AMPK (ULK1 pS556) = assay: Upstream AMPK activity: ULK1 pS556 western blot in U2OS cells; format: cell-based, human; details: 100 nM (VPS34-IN1 500 nM), 60 min pre-treatment, ± EBSS 60 min
Description: as §1
as §2, with “Lysates” for “Prior to western blot analysis, cells were washed twice in ice-cold PBS and lysed in buffer containing 50 mM HEPES pH 7.4, 150 mM NaCl, 1 mM EDTA, 10% Glycerol, 0.5% NP-40, 1 mM DTT, supplemented with phosphatase inhibitors (1.15 mM sodium molybdate, 4 mM sodium tartrate, 0.01 M β-glycerophosphate, 1 mM sodium fluoride, 1 mM sodium orthovanadate) and protease inhibitor tablets (Roche) according to manufacturer's instructions. Lysates”
as §3

PI3Kδ = tested on: PI3Kδ; set-up: method as in ChEMBL database; details: statement in discussion on published selectivity; ref ChEMBL database; cited from earlier work
AMPK α1β2ɣ1 = AMPK α1β2ɣ1 (Homo sapiens, UniProt O43741+P54619+Q13131); assay: AMPK ADP Hunter Plus kinase activity assay
VPS34 = VPS34 (Homo sapiens, UniProt Q8NEB9); assay: VPS34 ADP Hunter Plus kinase activity assay
Chain of VPS34 (Q8NEB9 whole entry): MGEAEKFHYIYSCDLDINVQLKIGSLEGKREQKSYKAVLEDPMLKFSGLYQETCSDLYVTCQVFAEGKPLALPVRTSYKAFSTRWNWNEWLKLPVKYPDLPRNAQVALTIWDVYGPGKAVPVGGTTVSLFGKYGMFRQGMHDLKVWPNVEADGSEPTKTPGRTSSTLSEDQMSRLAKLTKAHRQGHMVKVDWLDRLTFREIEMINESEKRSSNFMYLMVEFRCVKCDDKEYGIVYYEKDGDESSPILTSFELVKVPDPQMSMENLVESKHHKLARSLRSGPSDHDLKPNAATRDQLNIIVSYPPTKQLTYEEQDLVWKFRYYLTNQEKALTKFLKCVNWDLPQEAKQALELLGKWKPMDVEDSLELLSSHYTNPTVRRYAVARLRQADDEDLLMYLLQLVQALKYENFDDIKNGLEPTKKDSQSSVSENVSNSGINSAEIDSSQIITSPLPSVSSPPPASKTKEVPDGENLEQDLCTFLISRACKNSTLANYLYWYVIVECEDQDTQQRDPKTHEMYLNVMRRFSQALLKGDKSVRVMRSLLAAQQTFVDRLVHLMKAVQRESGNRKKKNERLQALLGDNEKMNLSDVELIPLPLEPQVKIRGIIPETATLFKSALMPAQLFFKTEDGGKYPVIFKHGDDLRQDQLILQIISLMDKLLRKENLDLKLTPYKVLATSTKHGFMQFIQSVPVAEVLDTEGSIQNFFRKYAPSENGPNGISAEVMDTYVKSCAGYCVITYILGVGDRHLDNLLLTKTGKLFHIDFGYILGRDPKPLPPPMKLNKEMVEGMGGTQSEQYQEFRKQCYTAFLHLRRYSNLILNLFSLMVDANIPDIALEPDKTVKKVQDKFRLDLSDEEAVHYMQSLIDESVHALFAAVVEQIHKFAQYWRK

Chain of AMPK α1β2ɣ1 (Q13131 whole entry): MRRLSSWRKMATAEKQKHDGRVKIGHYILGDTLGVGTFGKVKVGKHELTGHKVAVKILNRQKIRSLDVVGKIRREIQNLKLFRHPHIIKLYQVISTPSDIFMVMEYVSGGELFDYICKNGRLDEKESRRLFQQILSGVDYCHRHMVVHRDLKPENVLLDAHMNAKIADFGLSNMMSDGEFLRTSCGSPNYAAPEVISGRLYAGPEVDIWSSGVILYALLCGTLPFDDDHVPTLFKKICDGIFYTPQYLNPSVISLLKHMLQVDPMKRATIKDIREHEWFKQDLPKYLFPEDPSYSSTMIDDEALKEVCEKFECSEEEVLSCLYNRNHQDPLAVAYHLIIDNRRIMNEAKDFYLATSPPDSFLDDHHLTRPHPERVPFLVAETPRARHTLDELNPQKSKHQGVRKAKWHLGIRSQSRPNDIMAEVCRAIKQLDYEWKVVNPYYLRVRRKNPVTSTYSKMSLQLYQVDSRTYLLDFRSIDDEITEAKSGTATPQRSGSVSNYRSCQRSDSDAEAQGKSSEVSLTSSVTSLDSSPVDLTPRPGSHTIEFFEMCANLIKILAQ
Chain of AMPK α1β2ɣ1 (O43741 whole entry partner): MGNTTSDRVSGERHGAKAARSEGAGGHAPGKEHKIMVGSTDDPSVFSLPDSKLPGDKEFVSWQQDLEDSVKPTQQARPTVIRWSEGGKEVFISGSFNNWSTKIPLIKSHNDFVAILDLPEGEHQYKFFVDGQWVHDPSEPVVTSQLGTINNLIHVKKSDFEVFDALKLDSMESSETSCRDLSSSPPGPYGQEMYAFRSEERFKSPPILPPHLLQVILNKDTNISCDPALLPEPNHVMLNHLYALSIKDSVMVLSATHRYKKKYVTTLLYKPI
Chain of AMPK α1β2ɣ1 (P54619 whole entry partner): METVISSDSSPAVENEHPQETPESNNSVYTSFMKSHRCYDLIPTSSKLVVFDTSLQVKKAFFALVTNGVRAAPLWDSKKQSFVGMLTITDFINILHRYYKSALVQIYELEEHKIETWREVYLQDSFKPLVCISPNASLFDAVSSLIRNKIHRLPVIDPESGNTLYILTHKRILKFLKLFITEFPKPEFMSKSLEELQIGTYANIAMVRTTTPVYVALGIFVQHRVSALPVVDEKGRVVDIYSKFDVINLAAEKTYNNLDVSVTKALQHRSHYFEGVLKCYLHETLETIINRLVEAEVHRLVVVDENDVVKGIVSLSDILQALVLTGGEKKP

- IC50 (ULK1): > 100000 nM
- IC50 (AMPK α1β2ɣ1): > 100000 nM
- IC50 (VPS34; IC50 against VPS34, resynthesized samples, mean potency in parenthesis, n = 5): 8.6 nM and 9 nM
- IC50 (VPS34; pIC50 against VPS34, original PKIS samples, concentration-dependent retest of screen hits): < 1000 nM
- IC50 (VPS34; pIC50 against VPS34, resynthesized samples, 50 µM ATP (KM app), mean ± SD, n = 5): 8.51 nM
- Mechanism of inhibition of VPS34 with respect to ATP (VPS34; varying ATP below 200 µM, Michaelis–Menten and Lineweaver–Burk plots): primarily ATP competitive inhibition
- Mechanism of inhibition of VPS34 with respect to PI:PS (VPS34; varying PI:PS below 12 µM): clear non-competitive inhibition
SMILES: O=c1cc(N2CCOCC2)nc2n(Cc3cccc(Cl)c3Cl)c(C3CC3)nn12 [GSK2358994A]
- Effect on LC3 flux under EBSS starvation (LC3 flux in U2OS cells; 100 nM, 60 min pre-treatment then 60 min EBSS): significantly reduced LC3 flux
- Concentration blocking EBSS-induced autophagy (LC3) flux (LC3 flux in U2OS cells; EBSS + 50 nM BafA1, as low as, greater effect at 100 nM): ≤ 10 nM
- Effect on EBSS-induced WIPI2 puncta (VPS34 (WIPI2 puncta); 100 nM, 60 min pre-treatment then 60 min EBSS, vs EBSS only): significantly reduced
- Concentration working in cells (WIPI2 puncta reduction) (VPS34 (WIPI2 puncta); EBSS, as low as): ≤ 100 nM
- Effect on mTORC1 activity (pS758 ULK1) (mTOR (ULK1 pS758)): unaffected
- Effect on AMPK activity (pS556 ULK1) (AMPK (ULK1 pS556)): unaffected
- Potency against PI3Kδ (PI3Kδ): potent against PI3Kδ
